Here are results for eleven molecules from ChEMBL document CHEMBL3132776, “Synthesis of amphiphilic, chalcogen-based redox modulators with in vitro cytotoxic activity against cancer cells, macrophages and microbes” (Medchemcomm, 2014).

SMILES strings stand for the structures. Calls of active or inactive are those of the source. The rule behind the calls is not given here.

One data set has as its system HCT-116. Nature of the data set: Induction of superoxide anion radicals generation in human p53-positive HCT116 cells at 50 microM within 40 mins by DHE staining based fluorescence assay.
Conditions: not given
The class given is functional, cell-based.
Consider `O=S(=O)([O-])OCCCCCCCC[Te]c1ccccc1.[Na+]`, for which the result was Active.

In the next data set the target is Hemoglobin HbA (Homo sapiens) (UniProt P69905+P68871). Briefly: Binding affinity to Hemoglobin (unknown origin) at 10 mM by circular dichroism spectroscopy.
Chain of Hemoglobin HbA (Homo sapiens) (P68871 2-147 partner limits assumed): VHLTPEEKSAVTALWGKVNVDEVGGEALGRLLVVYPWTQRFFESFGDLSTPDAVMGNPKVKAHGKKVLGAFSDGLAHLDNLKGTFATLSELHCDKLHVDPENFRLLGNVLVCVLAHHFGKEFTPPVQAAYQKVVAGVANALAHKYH
Chain of Hemoglobin HbA (Homo sapiens) (P69905 2-142 limits assumed): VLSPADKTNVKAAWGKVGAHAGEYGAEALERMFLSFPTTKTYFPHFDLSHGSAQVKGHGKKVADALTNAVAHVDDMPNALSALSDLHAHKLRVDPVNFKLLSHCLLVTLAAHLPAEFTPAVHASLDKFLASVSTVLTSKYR
Conditions: not given
Take `O=S(=O)([O-])OCCCCCCCC[Te]c1ccccc1.[Na+]`: the result was Active.

With `O=S(=O)([O-])OCCCCCCCC[Se]c1ccccc1.[Na+]`, the result was Active.

Another data set relates to RAW264.7. Nature of the data set: Cytotoxicity against mouse RAW264.7 cells assessed as reduction in cell viability after 24 hrs by MTT assay. The class given is functional, cell-based. Particulars: RAW264.7, 24 h. Background: Tetrazolium assays rely on reduction of a dye to a coloured formazan, in cell work by metabolically active cells.
With `O=S(=O)([O-])OCCCCCCCCCCCC[Se]c1ccccc1.[Na+]`, the IC50 (as a rule, the point on the concentration scale where inhibition reaches its midpoint) is over 100 µM.

Take `O=S(=O)([O-])OCCCCCCCC[Te]c1ccccc1.[Na+]`: the IC50 was 3.95 µM.

On to `O=S(=O)([O-])OCCCCCCCCCCC[Se]c1ccccc1.[Na+]`, for which the IC50 was over 100 µM.

For the molecule `O=S(=O)([O-])OCCCCCCCCCC[Se]c1ccccc1.[Na+]`, the IC50 was over 100 µM.

Turning to `O=S(=O)([O-])OCCCCCCCCC[Te]c1ccccc1.[Na+]`, the IC50 came out at 4.67 µM.

Regarding `O=S(=O)([O-])OCCCCCCCCCCC[Te]c1ccccc1.[Na+]`, the 50% inhibitory concentration (IC50) turned out to be 7.84 µM.

`O=S(=O)([O-])OCCCCCCCC[Se]c1ccccc1.[Na+]`: the IC50 was over 100 µM.

As to `O=S(=O)([O-])OCCCCCCCCCC[Te]c1ccccc1.[Na+]`, the IC50 is 5.32 µM.

In the case of `O=S(=O)([O-])OCCCCCCCCCCCC[Te]c1ccccc1.[Na+]`, the IC50 was 4.96 µM.

`O=S(=O)([O-])OCCCCCCCCC[Se]c1ccccc1.[Na+]`: the concentration for half-maximal inhibition (IC50) was over 100 µM.

Turning to `CCCCCCCCCCCCOS(=O)(=O)[O-].[Na+]` [SODIUM LAURYL SULFATE], the IC50 is over 100 µM.

The test system of the next data set is Escherichia coli. Briefly: Antibacterial activity against Escherichia coli M17 VKPM-B8208 by agar plate assay. Type of data set: functional, organism-based.
Conditions: not given
For `O=S(=O)([O-])OCCCCCCCC[Te]c1ccccc1.[Na+]`, it took 550 µM to reach half-maximal inhibition (IC50).

Another data set deals with HCT-116. Nature of the data set: Induction of superoxide anion radicals generation in human p53-positive HCT116 cells by DHE staining based fluorescence assay. Type of data set: functional, cell-based.
Conditions: not given
For the molecule `O=S(=O)([O-])OCCCCCCCC[Se]c1ccccc1.[Na+]`, the outcome was inactive.

Test system in the next data set: not listed separately
Nature of the data set: Cytotoxicity against human ARPE19 cells assessed as reduction in cell viability after 24 hrs by MTT assay. Type of data set: cell-based. Particulars: ARPE-19, 24 h.
With `O=S(=O)([O-])OCCCCCCCC[Te]c1ccccc1.[Na+]`, the IC50 was determined as 50 µM.

For `O=S(=O)([O-])OCCCCCCCCC[Te]c1ccccc1.[Na+]`, the IC50 turned out to be 50 µM.

For the molecule `O=S(=O)([O-])OCCCCCCCCCCC[Te]c1ccccc1.[Na+]`, the IC50 was 50 µM.

Consider `O=S(=O)([O-])OCCCCCCCCCC[Te]c1ccccc1.[Na+]`, for which the IC50 came to 50 µM.

`O=S(=O)([O-])OCCCCCCCCCCCC[Te]c1ccccc1.[Na+]`: the IC50 came to 50 µM.

A further data set concerns Steinernema feltiae. Nature of the data set: Nematicidal activity against Steinernema feltiae assessed as reduction in viability after 24 hrs. Type of data set: functional. Particulars: read-out: LD50 (the source's name).
Regarding `O=S(=O)([O-])OCCCCCCCC[Te]c1ccccc1.[Na+]`, the LC50 is 78 µM.

For `O=S(=O)([O-])OCCCCCCCC[Se]c1ccccc1.[Na+]`, the LC50 was 30 µM.

On to `CCCCCCCCCCCCOS(=O)(=O)[O-].[Na+]` [SODIUM LAURYL SULFATE], for which the LC50 is over 400 µM.

A further data set relates to HCT-116. Briefly: Cytotoxicity against human p53-positive HCT116 cells assessed as reduction in cell viability after 24 hrs by MTT assay. The class given is functional, cell-based. The settings on record: HCT-116, 24 h.
Turning to `O=S(=O)([O-])OCCCCCCCCCCCC[Se]c1ccccc1.[Na+]`, the IC50 was over 100 µM.

Turning to `O=S(=O)([O-])OCCCCCCCC[Te]c1ccccc1.[Na+]`, the IC50 came out at 5.99 µM.

Regarding `O=S(=O)([O-])OCCCCCCCCCCC[Se]c1ccccc1.[Na+]`, the IC50 is over 100 µM.

`O=S(=O)([O-])OCCCCCCCCCC[Se]c1ccccc1.[Na+]`: the half-maximal inhibitory concentration (IC50) was over 100 µM.

Take `O=S(=O)([O-])OCCCCCCCCC[Te]c1ccccc1.[Na+]`: the IC50 is 4.99 µM.

`O=S(=O)([O-])OCCCCCCCCCCC[Te]c1ccccc1.[Na+]`: the IC50 worked out at 9.73 µM.

In the case of `O=S(=O)([O-])OCCCCCCCC[Se]c1ccccc1.[Na+]`, the IC50 was over 100 µM.

As for `O=S(=O)([O-])OCCCCCCCCCC[Te]c1ccccc1.[Na+]`, the IC50 came to 7.47 µM.

As to `O=S(=O)([O-])OCCCCCCCCCCCC[Te]c1ccccc1.[Na+]`, the IC50 turned out to be 19.8 µM.

For `O=S(=O)([O-])OCCCCCCCCC[Se]c1ccccc1.[Na+]`, the IC50 was over 100 µM.

On to `CCCCCCCCCCCCOS(=O)(=O)[O-].[Na+]` [SODIUM LAURYL SULFATE], for which the IC50 was over 100 µM.

In a further data set the test system is Erythrocyte. Nature of the data set: Induction of membrane permeabilization assessed as hemolysis in RBC (unknown origin) at 100 microM by spectrophotometry based hemoglobin release assay. Type of data set: functional.
Conditions: not given
Consider `O=S(=O)([O-])OCCCCCCCCCCCC[Se]c1ccccc1.[Na+]`, for which the Activity was 66.8%.

As for `O=S(=O)([O-])OCCCCCCCC[Te]c1ccccc1.[Na+]`, the Activity is 3.09%.

Consider `O=S(=O)([O-])OCCCCCCCCCCC[Se]c1ccccc1.[Na+]`, for which the Activity is given as 63.41%.

Consider `O=S(=O)([O-])OCCCCCCCCCC[Se]c1ccccc1.[Na+]`, for which the Activity worked out at 7.94%.

Regarding `O=S(=O)([O-])OCCCCCCCCC[Te]c1ccccc1.[Na+]`, the Activity is 20.44%.

With `O=S(=O)([O-])OCCCCCCCCCCC[Te]c1ccccc1.[Na+]`, the Activity amounted to 53.35%.

On to `O=S(=O)([O-])OCCCCCCCC[Se]c1ccccc1.[Na+]`, for which the Activity is reported as 1.24%.

For the molecule `O=S(=O)([O-])OCCCCCCCCCC[Te]c1ccccc1.[Na+]`, the Activity is 45.35%.

As for `O=S(=O)([O-])OCCCCCCCCCCCC[Te]c1ccccc1.[Na+]`, the Activity stood at 67.61%.

With `O=S(=O)([O-])OCCCCCCCCC[Se]c1ccccc1.[Na+]`, the Activity is 2.73%.

Regarding `CCCCCCCCCCCCOS(=O)(=O)[O-].[Na+]` [SODIUM LAURYL SULFATE], the Activity stood at 9.51%.

The subject of another data set is Erythrocyte. Nature of the data set: Induction of membrane permeabilization assessed as hemolysis in RBC (unknown origin) by spectrophotometry based hemoglobin release assay. The class given is functional, cell-based.
Conditions: not given
`O=S(=O)([O-])OCCCCCCCCCCCC[Se]c1ccccc1.[Na+]`: the Activity entry is “Dose-dependent effect”.

With `O=S(=O)([O-])OCCCCCCCC[Te]c1ccccc1.[Na+]`, the Activity entry is “Dose-dependent effect”.

Turning to `O=S(=O)([O-])OCCCCCCCCCCC[Se]c1ccccc1.[Na+]`, the Activity result was “Dose-dependent effect”.

As for `O=S(=O)([O-])OCCCCCCCCCC[Se]c1ccccc1.[Na+]`, the Activity entry is “Dose-dependent effect”.

As to `O=S(=O)([O-])OCCCCCCCCC[Te]c1ccccc1.[Na+]`, the Activity entry was “Dose-dependent effect”.

With `O=S(=O)([O-])OCCCCCCCCCCC[Te]c1ccccc1.[Na+]`, the Activity result is “Dose-dependent effect”.

Regarding `O=S(=O)([O-])OCCCCCCCC[Se]c1ccccc1.[Na+]`, the Activity entry is “Dose-dependent effect”.

Regarding `O=S(=O)([O-])OCCCCCCCCCC[Te]c1ccccc1.[Na+]`, the Activity entry was “Dose-dependent effect”.

On to `O=S(=O)([O-])OCCCCCCCCCCCC[Te]c1ccccc1.[Na+]`, for which the Activity entry is “Dose-dependent effect”.

Take `O=S(=O)([O-])OCCCCCCCCC[Se]c1ccccc1.[Na+]`: the Activity entry was “Dose-dependent effect”.

As for `CCCCCCCCCCCCOS(=O)(=O)[O-].[Na+]` [SODIUM LAURYL SULFATE], the Activity entry is “Dose-dependent effect”.

In a further data set the test system is HCT-116. Briefly: Reduction in mitochondrial membrane potential in human p53-positive HCT116 cells by JC-1 dye based fluorescence assay.
Conditions: not given
The class given is functional, cell-based.
As for `O=S(=O)([O-])OCCCCCCCC[Se]c1ccccc1.[Na+]`, the result was inactive.

Test system in a further data set: not listed separately
Nature of the data set: Critical micelle concentration of the compound by KRUSS tensiometry. The class given is physicochemical.
Conditions: not given
`O=S(=O)([O-])OCCCCCCCCCCCC[Se]c1ccccc1.[Na+]` displayed a CMC of 0.7 mM.

`O=S(=O)([O-])OCCCCCCCC[Te]c1ccccc1.[Na+]` returned a CMC of 5 mM.

`O=S(=O)([O-])OCCCCCCCCCCC[Se]c1ccccc1.[Na+]` displayed a CMC of 1.1 mM.

With `O=S(=O)([O-])OCCCCCCCCCC[Se]c1ccccc1.[Na+]`, the CMC came out at 1.2 mM.

As to `O=S(=O)([O-])OCCCCCCCCC[Te]c1ccccc1.[Na+]`, the CMC is 4.8 mM.

Regarding `O=S(=O)([O-])OCCCCCCCCCCC[Te]c1ccccc1.[Na+]`, the CMC is given as 0.5 mM.

Molecule `O=S(=O)([O-])OCCCCCCCC[Se]c1ccccc1.[Na+]` showed a CMC of 2.6 mM.

`O=S(=O)([O-])OCCCCCCCCCC[Te]c1ccccc1.[Na+]` registered a CMC of 0.9 mM.

Consider `O=S(=O)([O-])OCCCCCCCCCCCC[Te]c1ccccc1.[Na+]`, for which the CMC was 0.3 mM.

For `O=S(=O)([O-])OCCCCCCCCC[Se]c1ccccc1.[Na+]`, the CMC turned out to be 2.5 mM.

In turn, `CCCCCCCCCCCCOS(=O)(=O)[O-].[Na+]` [SODIUM LAURYL SULFATE] had a CMC of 0.9 mM.

A further data set concerns HCT-116. Nature of the data set: Drug uptake in human p53-positive HCT116 cells after 48 hrs by energy-dispersive X-ray spectroscopy. Type of data set: ADME, cell-based. Particulars: hct-116, 48 h.
Turning to `O=S(=O)([O-])OCCCCCCCC[Te]c1ccccc1.[Na+]`, the Drug uptake result was “Active”.
